Laboratory results reported in patent US20240158370A1, “CK1 alpha AND DUAL CK1 alpha / GSPT1 DEGRADING COMPOUNDS” (Innovo Therapeutics, Inc., priority 2022, published 2024).

Experiments:
GSPT1 = GSPT1 (Homo sapiens, UniProt P15170+Q96SW2); assay: HiBiT degradation assay, GSPT1, Procedure A; type: cell-based; set-up: HiBit-GSPT1 KI HEK293(LgBit) Cells; host or cells: HEK293(LgBit) knock-in cells; settings: six hours
Outline: (§1)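 Cells in DMEM + 10% FBS were treated with compound in a ten-point dose response from 10 μM to 0.005 μM (0.1% DMSO) for six hours at 37° C. Lysis with Nano-Glo HiBiT detection reagent followed, with luminescence read. DC50 and Ymin came from a 4-parameter fit.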

CK1α = molecular target: T1, CK1α (Homo sapiens, UniProt P48729+Q96SW2); assay: HiBiT degradation assay, CK1α, Procedure A; type: cell-based; settings: six hours
T1 construct: CSNK1A1-HiBit KI HEK293(LgBit) Cells; host or cells: HEK293(LgBit) knock-in cells
Outline: as §1

GSPT1, sequence (P15170 whole entry): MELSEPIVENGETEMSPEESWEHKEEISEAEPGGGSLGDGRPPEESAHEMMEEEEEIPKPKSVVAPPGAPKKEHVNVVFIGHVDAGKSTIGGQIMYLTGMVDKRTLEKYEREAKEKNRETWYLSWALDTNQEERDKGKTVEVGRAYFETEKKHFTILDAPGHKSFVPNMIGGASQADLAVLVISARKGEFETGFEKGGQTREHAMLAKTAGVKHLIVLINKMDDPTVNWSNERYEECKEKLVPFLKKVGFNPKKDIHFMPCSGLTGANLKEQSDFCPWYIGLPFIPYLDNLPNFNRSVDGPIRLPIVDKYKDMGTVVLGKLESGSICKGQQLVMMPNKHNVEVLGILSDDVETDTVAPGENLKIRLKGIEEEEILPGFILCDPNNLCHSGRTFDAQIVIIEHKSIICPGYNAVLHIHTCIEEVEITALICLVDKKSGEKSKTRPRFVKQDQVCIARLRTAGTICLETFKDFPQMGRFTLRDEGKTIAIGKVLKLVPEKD
GSPT1, sequence (Q96SW2 whole entry): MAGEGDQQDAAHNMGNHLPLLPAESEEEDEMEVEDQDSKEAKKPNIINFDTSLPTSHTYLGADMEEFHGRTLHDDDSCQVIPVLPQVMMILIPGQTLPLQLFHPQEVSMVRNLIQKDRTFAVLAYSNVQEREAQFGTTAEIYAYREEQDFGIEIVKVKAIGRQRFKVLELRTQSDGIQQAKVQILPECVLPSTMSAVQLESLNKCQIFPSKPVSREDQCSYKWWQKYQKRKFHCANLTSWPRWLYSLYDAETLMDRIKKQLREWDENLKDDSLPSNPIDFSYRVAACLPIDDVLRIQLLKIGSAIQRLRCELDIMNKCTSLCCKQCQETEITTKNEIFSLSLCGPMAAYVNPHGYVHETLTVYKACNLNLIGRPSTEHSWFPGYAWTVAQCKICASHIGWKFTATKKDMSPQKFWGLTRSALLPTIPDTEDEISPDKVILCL
GSPT1, sequence (Q16531 whole entry partner): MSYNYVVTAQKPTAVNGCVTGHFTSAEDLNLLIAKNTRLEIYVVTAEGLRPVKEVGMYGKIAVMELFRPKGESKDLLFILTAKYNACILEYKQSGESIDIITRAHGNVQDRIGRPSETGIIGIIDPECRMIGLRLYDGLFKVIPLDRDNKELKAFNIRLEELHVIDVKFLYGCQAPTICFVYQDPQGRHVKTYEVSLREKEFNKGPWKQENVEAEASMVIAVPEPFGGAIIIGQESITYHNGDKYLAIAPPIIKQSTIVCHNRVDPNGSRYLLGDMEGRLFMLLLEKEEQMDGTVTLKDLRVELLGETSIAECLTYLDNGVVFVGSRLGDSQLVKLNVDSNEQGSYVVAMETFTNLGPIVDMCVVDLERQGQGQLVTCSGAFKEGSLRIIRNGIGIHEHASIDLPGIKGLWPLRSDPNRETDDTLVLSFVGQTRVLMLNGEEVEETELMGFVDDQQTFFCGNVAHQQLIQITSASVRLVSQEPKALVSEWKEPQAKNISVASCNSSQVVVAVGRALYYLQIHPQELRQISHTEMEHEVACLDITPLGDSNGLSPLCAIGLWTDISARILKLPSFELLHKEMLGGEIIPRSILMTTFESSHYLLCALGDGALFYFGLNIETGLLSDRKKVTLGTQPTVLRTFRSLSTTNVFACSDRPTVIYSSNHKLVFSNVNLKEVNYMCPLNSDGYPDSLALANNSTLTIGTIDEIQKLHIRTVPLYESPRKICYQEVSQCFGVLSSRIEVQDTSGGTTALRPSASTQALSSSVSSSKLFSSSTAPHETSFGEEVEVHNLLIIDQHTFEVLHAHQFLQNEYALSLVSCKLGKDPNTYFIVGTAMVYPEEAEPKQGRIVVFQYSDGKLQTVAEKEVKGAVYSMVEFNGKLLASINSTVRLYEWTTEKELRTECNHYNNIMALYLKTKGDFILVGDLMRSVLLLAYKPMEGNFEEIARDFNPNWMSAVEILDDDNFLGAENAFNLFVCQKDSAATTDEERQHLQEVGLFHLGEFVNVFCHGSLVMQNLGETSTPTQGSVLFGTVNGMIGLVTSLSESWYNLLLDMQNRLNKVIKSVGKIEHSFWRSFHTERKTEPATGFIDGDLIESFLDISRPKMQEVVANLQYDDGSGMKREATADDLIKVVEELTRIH
T1 sequence (P48729 whole entry): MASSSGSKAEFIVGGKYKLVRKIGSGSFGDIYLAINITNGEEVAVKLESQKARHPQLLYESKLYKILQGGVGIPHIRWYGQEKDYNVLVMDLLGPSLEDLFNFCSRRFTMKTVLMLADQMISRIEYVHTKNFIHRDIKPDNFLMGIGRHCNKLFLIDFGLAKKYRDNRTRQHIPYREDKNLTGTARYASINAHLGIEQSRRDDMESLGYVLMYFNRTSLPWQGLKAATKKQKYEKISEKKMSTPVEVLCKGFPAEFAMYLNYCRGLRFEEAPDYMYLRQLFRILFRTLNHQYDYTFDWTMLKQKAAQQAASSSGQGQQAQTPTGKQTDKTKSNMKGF
T1 sequence (Q96SW2 whole entry): as the sequence (Q96SW2 whole entry) above
T1 sequence (Q16531 whole entry partner): as the sequence (Q16531 whole entry partner) above

| SMILES | DC50 (GSPT1) [µM] | GSPT1 Ymin (GSPT1) | CK1α Ymin (CK1α) | DC50 (CK1α) [µM] |
| --- | --- | --- | --- | --- |
| Cn1ncc(-c2ccc3c(c2)CN(C2CCC(=O)NC2=O)C3=O)c1-c1ccn(C)c(=O)c1 (stereo not shown) [Example 457] | ≥ 0.025 | F (F = >75-100% remaining) | E (E = >25-75% remaining) | ≥ 0.025 |
| COc1ccncc1-c1c(-c2ccc3c(c2)CN(C2CCC(=O)NC2=O)C3=O)cnn1C (stereo not shown) [Example 458] | < 0.025 | F (F = >75-100% remaining) | F (F = >75-100% remaining) | < 0.025 |
| Cn1ncc(-c2ccc3c(c2)CN(C2CCC(=O)NC2=O)C3=O)c1-c1ccc(=O)n(C)c1 (stereo not shown) [Example 459] | ≥ 0.025 | F (F = >75-100% remaining) | E (E = >25-75% remaining) | < 0.025 |
| Cn1ncc(-c2ccc3c(c2)CN(C2CCC(=O)NC2=O)C3=O)c1-c1ccc2nc[nH]c2c1 (stereo not shown) [Example 460] | ≥ 0.025 | F (F = >75-100% remaining) | D (D = >10- 25% remaining) | ≥ 0.025 |
| Cn1ncc(-c2ccc3c(c2)CN(C2CCC(=O)NC2=O)C3=O)c1-c1ccc2cncn2c1 (stereo not shown) [Example 461] | ≥ 0.025 | F (F = >75-100% remaining) | C (C = 0-10% remaining) | ≥ 0.025 |
| Cn1ncc(-c2ccc3c(c2)CN(C2CCC(=O)NC2=O)C3=O)c1-c1ccc2nccnc2c1 (stereo not shown) [Example 462] | ≥ 0.025 | F (F = >75-100% remaining) | E (E = >25-75% remaining) | ≥ 0.025 |
| Cn1ncc(-c2ccc3c(c2)CN(C2CCC(=O)NC2=O)C3=O)c1-c1ccc2ncn(C)c2c1 (stereo not shown) [Example 463] | ≥ 0.025 | F (F = >75-100% remaining) | D (D = >10- 25% remaining) | ≥ 0.025 |
| Cn1ncc(-c2ccc3c(c2)CN(C2CCC(=O)NC2=O)C3=O)c1-c1cnn(Cc2cccnc2)c1 (stereo not shown) [Example 464] | ≥ 0.025 | F (F = >75-100% remaining) | F (F = >75-100% remaining) | ≥ 0.025 |
| Cn1ncc(-c2ccc3c(c2)CN(C2CCC(=O)NC2=O)C3=O)c1-c1ccc(N2CCCCC2)nc1 (stereo not shown) [Example 465] | ≥ 0.025 | F (F = >75-100% remaining) | E (E = >25-75% remaining) | ≥ 0.025 |
| Cn1ncc(-c2ccc3c(c2)CN(C2CCC(=O)NC2=O)C3=O)c1-c1ccc(N2CCOCC2)nc1 (stereo not shown) [Example 466] | ≥ 0.025 | F (F = >75-100% remaining) | F (F = >75-100% remaining) | < 0.025 |
| Cn1ncc(-c2ccc3c(c2)CN(C2CCC(=O)NC2=O)C3=O)c1-c1cncc(OCc2ccccc2)c1 (stereo not shown) [Example 467] | ≥ 0.025 |  | F (F = >75-100% remaining) | ≥ 0.025 |
| Cn1ncc(-c2ccc3c(c2)CN(C2CCC(=O)NC2=O)C3=O)c1-c1cn[nH]c1 (stereo not shown) [Example 468] | ≥ 0.025 | F (F = >75-100% remaining) | E (E = >25-75% remaining) | ≥ 0.025 |
| Cn1ncc(-c2ccc3c(c2)CN(C2CCC(=O)NC2=O)C3=O)c1-c1cc[nH]n1 (stereo not shown) [Example 469] | ≥ 0.025 | F (F = >75-100% remaining) | D (D = >10- 25% remaining) | ≥ 0.025 |
| Cn1ccc(-c2c(-c3ccc4c(c3)CN(C3CCC(=O)NC3=O)C4=O)cnn2C)n1 (stereo not shown) [Example 470] | ≥ 0.025 | F (F = >75-100% remaining) | E (E = >25-75% remaining) | ≥ 0.025 |
| Cn1ncc(-c2ccc3c(c2)CN(C2CCC(=O)NC2=O)C3=O)c1-c1cccs1 (stereo not shown) [Example 471] | ≥ 0.025 | F (F = >75-100% remaining) | C (C = 0-10% remaining) | < 0.025 |
| Cc1ncccc1-c1c(-c2ccc3c(c2)CN(C2CCC(=O)NC2=O)C3=O)cnn1C (stereo not shown) [Example 472] | ≥ 0.025 | F (F = >75-100% remaining) | E (E = >25-75% remaining) | < 0.025 |
| COc1ccsc1-c1c(-c2ccc3c(c2)CN(C2CCC(=O)NC2=O)C3=O)cnn1C (stereo not shown) [Example 473] | ≥ 0.025 | F (F = >75-100% remaining) | E (E = >25-75% remaining) | < 0.025 |
| Cn1ncc(-c2ccc3c(c2)CN(C2CCC(=O)NC2=O)C3=O)c1-c1c[nH]c2ccccc12 (stereo not shown) [Example 474] | ≥ 0.025 | F (F = >75-100% remaining) | D (D = >10- 25% remaining) | < 0.025 |
| Cn1ncc(-c2ccc3c(c2)CN(C2CCC(=O)NC2=O)C3=O)c1-c1cnn(C2CCC2)c1 (stereo not shown) [Example 475] | < 0.025 | F (F = >75-100% remaining) | E (E = >25-75% remaining) | ≥ 0.025 |
| Cn1ncc(-c2ccc3c(c2)CN(C2CCC(=O)NC2=O)C3=O)c1-c1ccc2c(c1)ncn2C (stereo not shown) [Example 476] | ≥ 0.025 | F (F = >75-100% remaining) | D (D = >10- 25% remaining) | ≥ 0.025 |

Other lines, results leading:

| DC50 (GSPT1) [µM] | GSPT1 Ymin (GSPT1) | CK1α Ymin (CK1α) | DC50 (CK1α) [µM] | SMILES |
| --- | --- | --- | --- | --- |
| ≥ 0.025 | F (F = >75-100% remaining) | C (C = 0-10% remaining) | < 0.025 | Cn1ncc(-c2ccc3c(c2)CN(C2CCC(=O)NC2=O)C3=O)c1-c1ccc2c(c1)CCCO2 (stereo not shown) [Example 477] |
| ≥ 0.025 | F (F = >75-100% remaining) | D (D = >10- 25% remaining) | < 0.025 | Cn1ncc(-c2ccc3c(c2)CN(C2CCC(=O)NC2=O)C3=O)c1-c1ccc2sccc2c1 (stereo not shown) [Example 478] |
| ≥ 0.025 | F (F = >75-100% remaining) | E (E = >25-75% remaining) | < 0.025 | Cn1ncc(-c2ccc3c(c2)CN(C2CCC(=O)NC2=O)C3=O)c1-c1cccc(-n2cccn2)c1 (stereo not shown) [Example 479] |
| ≥ 0.025 | F (F = >75-100% remaining) | E (E = >25-75% remaining) | ≥ 0.025 | Cn1ncc(-c2ccc3c(c2)CN(C2CCC(=O)NC2=O)C3=O)c1-c1cnn(Cc2ccccc2)c1 (stereo not shown) [Example 480] |
| < 0.025 | F (F = >75-100% remaining) | E (E = >25-75% remaining) | ≥ 0.025 | Cc1c(-c2c(-c3ccc4c(c3)CN(C3CCC(=O)NC3=O)C4=O)cnn2C)cnn1-c1ccccc1 (stereo not shown) [Example 481] |
| < 0.025 | E (E = >25-75% remaining) | D (D = >10- 25% remaining) | < 0.025 | Cn1cnc(-c2ccc3c(c2)CN(C2CCC(=O)NC2=O)C3=O)c1-c1cccnc1 (stereo not shown) [Example 482] |
| < 0.025 | F (F = >75-100% remaining) | D (D = >10- 25% remaining) | < 0.025 | Cc1occc1-c1c(-c2ccc3c(c2)CN(C2CCC(=O)NC2=O)C3=O)ncn1C (stereo not shown) [Example 483] |
| ≥ 0.025 | F (F = >75-100% remaining) | E (E = >25-75% remaining) | ≥ 0.025 | Cn1cnc(-c2ccc3c(c2)CN(C2CCC(=O)NC2=O)C3=O)c1-c1cnc(N)nc1 (stereo not shown) [Example 485] |
| < 0.025 | F (F = >75-100% remaining) | D (D = >10- 25% remaining) | < 0.025 | COc1cncc(-c2c(-c3ccc4c(c3)CN(C3CCC(=O)NC3=O)C4=O)ncn2C)c1 (stereo not shown) [Example 486] |
